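Results reflect a 48-hour exposure of cells in 96-well plates to compound at five concentrations. GI50 marks 50% less growth. TGI: concentration producing complete growth inhibition.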
What was measured:
Experiment in all cases: NCI-60 cell line screen, 48 h
[1] = tested on: NCI-H226 lung
[2] = tested on: UACC-257 melanoma
[3] = tested on: TK-10 renal
[4] = tested on: U251 CNS
[5] = tested on: HCT-15 colon
[6] = tested on: OVCAR-3 ovarian
[7] = tested on: HS 578T breast
[8] = tested on: NCI-H522 lung
[9] = tested on: NCI/ADR-RES ovarian
[10] = tested on: OVCAR-8 ovarian

Cc1ccc(NC(=O)C(Cc2c[nH]c3ccccc23)NC(=O)Oc2ccccc2)cc1C (configuration not stated)
TGI [1]: > 100 µM
TGI [2]: > 100 µM
TGI [3]: 25.5 µM
TGI [4]: > 100 µM
TGI [5]: > 100 µM
TGI [6]: > 100 µM
TGI [7]: > 100 µM
TGI [8]: > 100 µM
TGI [9]: > 100 µM
TGI [10]: > 100 µM

CCCC(O)c1cn(C(NC(=O)c2ccccc2)P(=O)(OCC)OCC)nn1 (configuration not stated)
TGI [1]: > 100 µM
TGI [2]: > 100 µM
TGI [3]: > 100 µM
TGI [4]: > 100 µM
TGI [5]: > 100 µM
TGI [6]: > 100 µM
TGI [7]: > 100 µM
TGI [8]: > 100 µM
TGI [9]: > 100 µM
TGI [10]: > 100 µM

COC(=O)C1C=CCON2CCc3c(n(C)c4ccccc34)C12 (configuration not stated)
TGI [1]: > 100 µM
TGI [3]: > 100 µM
TGI [4]: > 100 µM
TGI [5]: > 100 µM
TGI [6]: > 100 µM
TGI [8]: > 100 µM

COC12CCCN1c1ccn(Cc3ccccc3)c(=O)c1C2=O (configuration not stated)
TGI [1]: > 100 µM
TGI [2]: > 100 µM
TGI [3]: > 100 µM
TGI [4]: > 100 µM
TGI [5]: > 100 µM
TGI [6]: > 100 µM
TGI [7]: > 100 µM
TGI [8]: > 100 µM
TGI [9]: > 100 µM
TGI [10]: > 100 µM

Fc1ccc(N=C/C=C/Nc2ccc(F)cc2)cc1
TGI [1]: 36.2 µM
TGI [2]: 26.8 µM
TGI [3]: 4.32 µM
TGI [4]: 20.6 µM
TGI [5]: 15.2 µM
TGI [6]: 31.1 µM
TGI [7]: 47.2 µM
TGI [8]: 27.6 µM
TGI [9]: 26.4 µM
TGI [10]: 25.9 µM

Nc1ccccc1.[C-]#[O+].[C-]#[O+].[C-]#[O+].[C-]#[O+].[C-]#[O+].[Cr]
GI50 [1]: > 10 µM
TGI [1]: > 10 µM
GI50 [3]: 4.83 µM
TGI [3]: > 10 µM
GI50 [4]: 9.45 µM
TGI [4]: > 10 µM
GI50 [5]: 4.99 µM
TGI [5]: > 10 µM
GI50 [6]: 3.18 µM
TGI [6]: > 10 µM
GI50 [7]: 3.28 µM
TGI [7]: > 10 µM
GI50 [8]: 2.94 µM
TGI [8]: > 10 µM
GI50 [9]: 2.76 µM
TGI [9]: 9.79 µM
GI50 [10]: 4.03 µM
TGI [10]: > 10 µM

COc1cc2oc(=O)cc(C)c2cc1O
TGI [1]: > 100 µM
TGI [2]: > 100 µM
TGI [3]: > 100 µM
TGI [4]: > 100 µM
TGI [5]: > 100 µM
TGI [6]: > 100 µM
TGI [7]: > 100 µM
TGI [8]: > 100 µM
TGI [9]: > 100 µM
TGI [10]: > 100 µM

COC(=O)C1=C(OC(=O)/C=C/c2ccccc2)C(C(=O)OC)[C@@]2(O)[C@@H](C(=O)OC)[C@H](C)C[C@@H]1[C@@H]2C(=O)OC (some centres not stated)
TGI [1]: > 100 µM
TGI [2]: 90.9 µM
TGI [3]: > 100 µM
TGI [4]: 45.6 µM
TGI [5]: 37.6 µM
TGI [6]: 54.1 µM
TGI [7]: 50.1 µM
TGI [8]: 21 µM
TGI [9]: 41.5 µM
TGI [10]: 46.2 µM

O=c1sc2c(s1)-c1sc(=O)sc1SS2
TGI [1]: > 73.1 µM
TGI [2]: > 100 µM
TGI [3]: > 79.4 µM
TGI [4]: > 31.6 µM
TGI [5]: > 31.6 µM
TGI [6]: > 100 µM
TGI [7]: > 100 µM
TGI [8]: > 100 µM
TGI [9]: > 76.3 µM
TGI [10]: 48.9 µM

COc1cc2cc(C(=O)N3CC(CCl)c4c3cc(NC(=O)OCc3ccc([N+](=O)[O-])cc3)c3ccccc43)[nH]c2c(OC)c1OC (configuration not stated)
TGI [1]: > 100 µM
TGI [2]: > 100 µM
TGI [4]: > 100 µM
TGI [5]: > 100 µM
TGI [6]: > 100 µM
TGI [7]: > 100 µM
TGI [8]: > 76.7 µM
TGI [9]: > 100 µM
TGI [10]: > 100 µM

c1ccc(CN[C@]23C4C5CC6C7C5C2C7[C@@](NCc2ccccc2)(C64)N3Cc2ccccc2)cc1 (some centres not stated)
TGI [1]: > 100 µM
TGI [2]: > 100 µM
TGI [3]: > 100 µM
TGI [4]: > 100 µM
TGI [5]: > 100 µM
TGI [6]: > 100 µM
TGI [7]: > 100 µM
TGI [8]: > 100 µM
TGI [9]: > 100 µM
TGI [10]: > 100 µM

CCCCCc1cc2cc3c(c(O)c2c(=O)[nH]1)C1(CCC3)C(O)=c2c(=O)c3c(=O)cc(OC)c(=O)c=3c(=O)c2=C1O (configuration not stated)
TGI [1]: 4.21 µM
TGI [2]: 4.64 µM
TGI [4]: 2.61 µM
TGI [5]: 2.33 µM
TGI [6]: 2.21 µM
TGI [7]: 5.42 µM
TGI [8]: 1.87 µM
TGI [9]: 15.3 µM
TGI [10]: 3.25 µM

CSC1C(=O)Nc2ccc3ccccc3c21 (configuration not stated)
TGI [1]: > 100 µM
TGI [2]: 44.8 µM
TGI [3]: 33.2 µM
TGI [4]: 33.6 µM
TGI [5]: 38.4 µM
TGI [7]: 46 µM
TGI [8]: 7.29 µM
TGI [9]: > 100 µM
TGI [10]: 34.9 µM

Cc1c(CCO)c(=O)n2c([nH]c3ccccc32)c1C#N
TGI [1]: > 100 µM
TGI [2]: > 100 µM
TGI [3]: > 100 µM
TGI [4]: > 100 µM
TGI [5]: > 100 µM
TGI [6]: > 100 µM
TGI [8]: > 100 µM
TGI [10]: > 100 µM

COC(=O)CCc1ccc2c(c1)C(=O)CC2
TGI [2]: > 100 µM
TGI [3]: > 100 µM
TGI [4]: > 100 µM
TGI [5]: > 100 µM
TGI [6]: > 100 µM
TGI [7]: > 100 µM
TGI [8]: > 100 µM
TGI [9]: > 100 µM
TGI [10]: > 100 µM

CCCCCCCCCCCCc1ccc(S(=O)(=O)O)cc1.[Zn+2]
TGI [1]: > 100 µM
TGI [2]: > 100 µM
TGI [3]: > 100 µM
TGI [4]: > 100 µM
TGI [5]: > 100 µM
TGI [6]: > 100 µM
TGI [7]: > 100 µM
TGI [9]: > 100 µM
TGI [10]: > 100 µM

CCN(CC)c1ccc(N=Nc2ccc([N+](=O)[O-])cc2OC(=O)/C=C/c2ccccc2)c(OC(=O)/C=C/c2ccccc2)c1
TGI [1]: > 100 µM
TGI [2]: 99.7 µM
TGI [3]: > 100 µM
TGI [4]: > 100 µM
TGI [5]: > 100 µM
TGI [6]: > 100 µM
TGI [8]: > 100 µM
TGI [10]: > 100 µM

O=[N+]([O-])c1ccc(C(Nc2ccccc2)P(c2ccccc2)c2ccccc2)cc1 (configuration not stated)
TGI [1]: > 100 µM
TGI [2]: > 100 µM
TGI [3]: > 100 µM
TGI [4]: > 100 µM
TGI [5]: > 100 µM
TGI [7]: > 100 µM
TGI [8]: > 100 µM
TGI [9]: > 100 µM
TGI [10]: > 100 µM

COc1ccc(NC(=O)CC(=O)n2nc(C)c(N=Nc3cccc(C)c3)c2C)cc1
TGI [1]: > 100 µM
TGI [3]: > 100 µM
TGI [4]: > 100 µM
TGI [5]: > 100 µM
TGI [6]: > 100 µM
TGI [7]: > 100 µM
TGI [8]: > 100 µM
TGI [9]: > 100 µM
TGI [10]: > 100 µM

CCn1c(SC(C)C(=O)c2c(C)n(C)n(-c3ccccc3)c2=O)nc2ccccc2c1=O (configuration not stated)
TGI [1]: > 100 µM
TGI [2]: > 100 µM
TGI [3]: > 100 µM
TGI [4]: > 100 µM
TGI [5]: > 100 µM
TGI [6]: > 100 µM
TGI [8]: > 100 µM
TGI [10]: > 100 µM

O=C1c2ccccc2C(=O)c2c(O)c(NCCCNCCO)cc(O)c21
TGI [1]: 22 µM
TGI [3]: 22.1 µM
TGI [4]: 21.1 µM
TGI [5]: 24.6 µM
TGI [6]: 26.6 µM
TGI [10]: 23.7 µM

— PubChem BioAssay (NCI)
